pIC50: −log10 of the molar value.
Tests used:
[1] = molecular target: T1, FASN Keto-reductase Domain (Homo sapiens, UniProt P49327); experiment: Fatty Acid Synthase Keto-Reductase Domain (FASN KR) Inhibition; assay type: biochemical; settings: mean where tested more than once; read-out: FASN K-R Domain pIC50 (converted)
T1 construct: 10 μL hFASN enzyme (full length, 300 ng, purified in house) and 360 μM NADPH; made in house
Method in brief: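 Keto-reductase activity followed as NADPH consumption (A340 drop between 0 and 20 min, room temperature) using in-house full-length hFASN, 360 μM NADPH and ethyl acetoacetate substrate (180 mM stock), pH 7.5 phosphate buffer.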

[2] = tested on: A2780 ovarian cells; experiment: A2780 Ovarian Cell Proliferation Assay in Lipid Reduced Medium, with Palmitate (control); assay type: cell-based; settings: Homo sapiens, A2780; lipid reduced medium, 25 μM palmitate, 96 h, MTT; read-out: Proliferation A2780 with Palmitate pIC50 (converted)
Method in brief: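 Read-out was MTT absorbance at 544 nm after 96 h at 37 °C. Cells grown overnight in RPMI1640/10% FCS were moved to 10% lipid-reduced serum with compound plus palmitate (final 25 μM, 0.2% fatty-acid-free BSA, 0.2% DMSO). IC50 came from least-squares curve fitting, expressed as −log(IC50).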

[3] = molecular target: T2, hFASN enzyme (full length) (Homo sapiens, UniProt P49327); experiment: Fatty Acid Synthase (FASN) Inhibition Scintillation Proximity Assay; assay type: biochemical; settings: for pIC50: mean where tested more than once, ~ = standard error of pIC50 larger than 0.5; for inhibition at 10 µM: read-out: FASN % Effect @1E−05M
T2 construct: 10 μL hFASN enzyme (full length, 300 ng, purified in house); made in house
Method in brief: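 Eight compound concentrations (0.01–30 μM) tested in pH 7.5 phosphate buffer with DTT; human full-length enzyme converted [3H]-acetyl-CoA plus malonyl-CoA, with NADPH, over 60 min at room temperature. Hydrophobic [3H]-palmitate detected by bead proximity scintillation imaging; control-normalised data fitted for IC50/pIC50.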

[4] = tested on: A2780 ovarian cells; experiment: A2780 Ovarian Cell Proliferation Assay in Lipid Reduced Medium, without Palmitate; assay type: cell-based; settings: Homo sapiens, A2780; lipid reduced medium, without palmitate, 96 h, MTT; read-out: Proliferation A2780 w/o Palmitate pIC50 (converted)
Method in brief: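 A2780 cells were seeded in 10% FCS medium and switched next day to 10% lipid-reduced serum without palmitate. Compounds at 0.01–30 μM were added with 0.2% DMSO, 0.2% fatty-acid-free BSA and 0.25% ethanol final. After 96 h, MTT absorbance at 544 nm was normalized to plate controls, and IC50/pIC50 came from a 4-parameter logistic fit.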

T2 sequence (P49327 whole entry): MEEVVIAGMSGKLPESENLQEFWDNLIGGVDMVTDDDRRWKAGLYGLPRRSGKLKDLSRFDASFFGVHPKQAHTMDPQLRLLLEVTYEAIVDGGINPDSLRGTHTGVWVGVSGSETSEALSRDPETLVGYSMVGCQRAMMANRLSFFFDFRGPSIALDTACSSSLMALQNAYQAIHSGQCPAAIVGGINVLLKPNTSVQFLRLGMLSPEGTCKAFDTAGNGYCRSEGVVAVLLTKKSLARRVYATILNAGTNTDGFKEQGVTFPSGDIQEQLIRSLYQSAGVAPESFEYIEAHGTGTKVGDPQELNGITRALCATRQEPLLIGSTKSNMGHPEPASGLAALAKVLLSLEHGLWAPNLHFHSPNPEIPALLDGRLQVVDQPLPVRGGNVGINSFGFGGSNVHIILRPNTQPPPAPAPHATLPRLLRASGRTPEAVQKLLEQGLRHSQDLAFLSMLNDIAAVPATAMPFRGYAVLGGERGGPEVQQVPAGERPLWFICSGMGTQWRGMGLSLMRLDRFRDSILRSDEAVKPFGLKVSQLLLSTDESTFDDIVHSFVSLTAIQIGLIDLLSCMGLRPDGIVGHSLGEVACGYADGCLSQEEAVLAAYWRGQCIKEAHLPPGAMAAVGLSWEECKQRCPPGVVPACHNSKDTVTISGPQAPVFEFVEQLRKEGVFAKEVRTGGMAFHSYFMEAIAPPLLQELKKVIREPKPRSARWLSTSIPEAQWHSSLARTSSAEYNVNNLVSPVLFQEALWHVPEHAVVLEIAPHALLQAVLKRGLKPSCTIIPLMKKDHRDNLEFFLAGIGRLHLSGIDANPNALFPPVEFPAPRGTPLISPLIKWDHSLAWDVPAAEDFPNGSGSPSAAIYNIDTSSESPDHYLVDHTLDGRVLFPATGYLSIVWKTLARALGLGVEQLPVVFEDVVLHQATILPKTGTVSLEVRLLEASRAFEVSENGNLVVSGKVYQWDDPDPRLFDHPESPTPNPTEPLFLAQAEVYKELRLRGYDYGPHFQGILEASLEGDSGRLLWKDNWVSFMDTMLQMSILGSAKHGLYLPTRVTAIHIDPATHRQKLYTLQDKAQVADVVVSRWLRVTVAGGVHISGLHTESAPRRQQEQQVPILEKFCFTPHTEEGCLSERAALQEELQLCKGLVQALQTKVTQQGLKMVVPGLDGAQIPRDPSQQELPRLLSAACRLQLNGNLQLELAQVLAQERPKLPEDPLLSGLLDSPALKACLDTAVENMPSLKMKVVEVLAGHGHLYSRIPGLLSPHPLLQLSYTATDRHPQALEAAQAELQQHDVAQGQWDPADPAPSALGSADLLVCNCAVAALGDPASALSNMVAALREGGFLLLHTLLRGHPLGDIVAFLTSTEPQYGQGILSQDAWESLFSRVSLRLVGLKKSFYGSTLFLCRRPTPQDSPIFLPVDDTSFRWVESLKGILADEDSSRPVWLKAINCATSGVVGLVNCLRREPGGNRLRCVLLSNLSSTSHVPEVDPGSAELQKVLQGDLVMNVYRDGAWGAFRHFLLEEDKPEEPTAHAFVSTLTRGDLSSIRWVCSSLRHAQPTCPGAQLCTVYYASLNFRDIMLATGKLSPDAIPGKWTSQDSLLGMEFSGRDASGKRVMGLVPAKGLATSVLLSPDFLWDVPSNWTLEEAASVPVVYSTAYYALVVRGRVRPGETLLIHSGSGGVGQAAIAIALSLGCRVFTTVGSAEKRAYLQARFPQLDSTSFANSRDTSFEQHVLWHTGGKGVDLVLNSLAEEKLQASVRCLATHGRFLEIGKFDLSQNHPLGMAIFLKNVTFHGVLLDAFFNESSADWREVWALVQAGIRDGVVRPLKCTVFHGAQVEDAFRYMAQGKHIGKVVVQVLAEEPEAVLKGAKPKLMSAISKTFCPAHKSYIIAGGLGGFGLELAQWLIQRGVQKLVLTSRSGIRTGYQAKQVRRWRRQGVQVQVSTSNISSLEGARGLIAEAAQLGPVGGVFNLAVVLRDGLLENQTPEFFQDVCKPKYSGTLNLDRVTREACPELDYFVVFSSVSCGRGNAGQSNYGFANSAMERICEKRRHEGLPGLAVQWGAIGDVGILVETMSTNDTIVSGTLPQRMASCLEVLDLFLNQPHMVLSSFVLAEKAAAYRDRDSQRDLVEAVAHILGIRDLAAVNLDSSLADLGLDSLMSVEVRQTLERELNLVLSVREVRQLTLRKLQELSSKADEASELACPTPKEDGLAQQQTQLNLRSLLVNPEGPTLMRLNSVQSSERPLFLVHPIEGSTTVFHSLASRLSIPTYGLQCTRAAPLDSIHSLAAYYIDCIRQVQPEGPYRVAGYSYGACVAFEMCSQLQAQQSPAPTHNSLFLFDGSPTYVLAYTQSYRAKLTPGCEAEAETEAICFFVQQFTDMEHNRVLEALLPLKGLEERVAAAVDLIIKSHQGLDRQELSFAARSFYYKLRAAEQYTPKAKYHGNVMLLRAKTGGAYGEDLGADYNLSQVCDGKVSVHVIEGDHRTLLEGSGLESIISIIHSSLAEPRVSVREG
T1 sequence (P49327 whole entry, the tested form may be a part): as the sequence (P49327 whole entry) above

IC50 [1] [nM] | IC50 [2] [nM] | pIC50 [3] | inhibition at 10 µM [3] [%] | IC50 [4] [nM] | Compound
53.7 | 8320 | 7.32 | 102 | 89.1 | Cc1ccc(C(=O)N2CCC(c3ccc(-c4cnn(C)c4)cc3)CC2)cc1NC(=O)c1ccc(C(C)C)cc1 [Compound 148, 4-isopropyl-N-(2-methyl-5-(4-(4-(1-methyl-1H-pyrazol-4-yl)phenyl)piperidine-1-carbonyl)phenyl)benzamide]
214 | 9550 | 7.24 | 103 | 457 | Cc1ccc(C(=O)N2CCC(c3ccc(-c4cnn(C)c4)cc3)CC2)cc1NC(=O)c1sccc1C [Compound 149, 3-methyl-N-(2-methyl-5-(4-(4-(1-methyl-1H-pyrazol-4-yl)phenyl)piperidine-1-carbonyl)phenyl)thiophene-2-carboxamide]
155 | > 10000 | 7.36 | 110 | 479 | Cc1ccc(C(=O)N2CCC(c3ccc(-c4cnn(C)c4)cc3)CC2)cc1NC(=O)C1CCNCC1 [Compound 150, N-(2-methyl-5-(4-(4-(1-methyl-1H-pyrazol-4-yl)phenyl)piperidine-1-carbonyl)phenyl)piperidine-4-carboxamide]
708 | > 10000 | 6.83 | 101 | 1170 | Cc1ccc(C(=O)N2CCC(c3ccc(-c4cnn(C)c4)cc3)CC2)cc1NC(=O)C1CCCO1 (stereo not shown) [Compound 151, N-(2-methyl-5-(4-(4-(1-methyl-1H-pyrazol-4-yl)phenyl)piperidine-1-carbonyl)phenyl)tetrahydrofuran-2-carboxamide]
17.4 | 7240 | 7.66 | 106 | 12.3 | Cc1ccc(C(=O)N2CCC(c3ccc(-c4cnn(C)c4)cc3)CC2)cc1NC(=O)c1cnc(N2CCOCC2)nc1 [Compound 152, N-(2-methyl-5-(4-(4-(1-methyl-1H-pyrazol-4-yl)phenyl)piperidine-1-carbonyl)phenyl)-2-morpholinopyrimidine-5-carboxamide]
61.7 | 4680 | 7.52 | 102 | 38 | CCC(CC)C(=O)Nc1cc(C(=O)N2CC(c3ccc(-c4cnn(C)c4)cc3)C2)ccc1C [Compound 153, 2-ethyl-N-(2-methyl-5-(3-(4-(1-methyl-1H-pyrazol-4-yl)phenyl)azetidine-1-carbonyl)phenyl)butanamide]
105 | 4070 | 7.57 | 108 | 1350 | Cc1ccc(C(=O)N2CC(c3ccc(-c4cnn(C)c4)cc3)C2)cc1NC(=O)c1cnc(Cl)nc1 [Compound 154, 2-chloro-N-(2-methyl-5-(3-(4-(1-methyl-1H-pyrazol-4-yl)phenyl)azetidine-1-carbonyl)phenyl)pyrimidine-5-carboxamide]
93.3 | > 10000 | 7.32 | 98 | 85.1 | COc1ccc(C(=O)Nc2cc(C(=O)N3CCC(c4ccc(-c5cnn(C)c5)cc4)CC3)ccc2C)cc1Cl [Compound 155, 3-chloro-4-methoxy-N-(2-methyl-5-(4-(4-(1-methyl-1H-pyrazol-4-yl)phenyl)piperidine-1-carbonyl)phenyl)benzamide]
263 | > 10000 | 6.97 | 100 | 275 | Cc1ccc(C(=O)N2CCC(c3ccc(-c4cnn(C)c4)cc3)CC2)cc1NC(=O)C(C)C [Compound 156, N-(2-methyl-5-(4-(4-(1-methyl-1H-pyrazol-4-yl)phenyl)piperidine-1-carbonyl)phenyl)isobutyramide]
120 | > 10000 | 7.37 | 104 | 115 | Cc1ccc(C(=O)Nc2cc(C(=O)N3CCC(c4ccc(-c5cnn(C)c5)cc4)CC3)ccc2C)s1 [Compound 157, 5-methyl-N-(2-methyl-5-(4-(4-(1-methyl-1H-pyrazol-4-yl)phenyl)piperidine-1-carbonyl)phenyl)thiophene-2-carboxamide]
37.2 | > 10000 | 7.63 | 102 | 10 | Cc1ccc(C(=O)N2CC(c3ccc(-c4cnn(C)c4)cc3)C2)cc1NC(=O)c1cnc(NC(C)C)nc1 [Compound 158, 2-(isopropylamino)-N-(2-methyl-5-(3-(4-(1-methyl-1H-pyrazol-4-yl)phenyl)azetidine-1-carbonyl)phenyl)pyrimidine-5-carboxamide]
33.9 | > 10000 | 7.64 | 104 | ~5.75 | Cc1ccc(C(=O)N2CC(c3ccc(-c4cnn(C)c4)cc3)C2)cc1NC(=O)c1cnc(N2CCOCC2)nc1 [Compound 159, N-(2-methyl-5-(3-(4-(1-methyl-1H-pyrazol-4-yl)phenyl)azetidine-1-carbonyl)phenyl)-2-morpholinopyrimidine-5-carboxamide]
91.2 | 6920 | 7.39 | 100 | 28.2 | Cc1ccc(C(=O)N2CCC(c3ccc(-c4cnn(C)c4)cc3)CC2)cc1NC(=O)c1ccc2[nH]ccc2c1 [Compound 160, N-(2-methyl-5-(4-(4-(1-methyl-1H-pyrazol-4-yl)phenyl)piperidine-1-carbonyl)phenyl)-1H-indole-5-carboxamide]
38.9 | 3720 | 7.67 | 101 | 24 | Cc1ccc(C(=O)N2CCC(c3ccc(-c4cnn(C)c4)cc3)CC2)cc1NC(=O)c1ccncc1F [Compound 161, 3-fluoro-N-(2-methyl-5-(4-(4-(1-methyl-1H-pyrazol-4-yl)phenyl)piperidine-1-carbonyl)phenyl)isonicotinamide]
32.4 | ~7590 | 7.70 | 101 | 8.13 | Cc1ccc(C(=O)N2CCC(c3ccc(-c4cnn(C)c4)cc3)CC2)cc1NC(=O)c1cnc(NC2CCC2)nc1 [Compound 162, 2-(cyclobutylamino)-N-(2-methyl-5-(4-(4-(1-methyl-1H-pyrazol-4-yl)phenyl)piperidine-1-carbonyl)phenyl)pyrimidine-5-carboxamide]
46.8 | > 10000 | 7.54 | 105 | 13.2 | Cc1ccc(C(=O)N2CCC(c3ccc(-c4cnn(C)c4)cc3)CC2)cc1NC(=O)c1ccc(N2CCN[C@@H](CO)C2)nc1 [Compound 163, (3R)-6-(3-(hydroxymethyl)piperazin-1-yl)-N-(2-methyl-5-(4-(4-(1-methyl-1H-Pyrazol-4-yl)phenyl)piperidine-1-carbonyl)phenyl)nicotinamide]
126 | > 10000 | 7.21 | 113 | 72.4 | CCN1CCC(C(=O)Nc2cc(C(=O)N3CCC(c4ccc(-c5cnn(C)c5)cc4)CC3)ccc2C)CC1 [Compound 168, 1-ethyl-N-(2-methyl-5-(4-(4-(1-methyl-1H-pyrazol-4-yl)phenyl)piperidine-1-carbonyl)phenyl)piperidine-4-carboxamide]
191 | > 10000 | 7.15 | 106 | 77.6 | Cc1ccc(C(=O)N2CCC(c3ccc(-c4cnn(C)c4)cc3)CC2)cc1NC(=O)C1CCN(C)CC1 [Compound 169, 1-methyl-N-(2-methyl-5-(4-(4-(1-methyl-1H-pyrazol-4-yl)phenyl)piperidine-1-carbonyl)phenyl)piperidine-4-carboxamide]
339 | > 10000 | 7.24 | 112 | 302 | Cc1ccc(C(=O)N2CCC(c3ccc(-c4cnn(C)c4)cc3)CC2)cc1NC(=O)C1CCNC1 (stereo not shown) [Compound 170, N-(2-methyl-5-(4-(4-(1-methyl-1H-pyrazol-4-yl)phenyl)piperidine-1-carbonyl)phenyl)pyrrolidine-3-carboxamide]
1000 | > 10000 | 6.05 | 84 | 1200 | Cc1ccc(C(=O)N2CCC(c3ccc(-c4cnn(C)c4)cc3)CC2)cc1NC(=O)[C@@H]1CCCN1 [Compound 171, (S)—N-(2-methyl-5-(4-(4-(1-methyl-1H-pyrazol-4-yl)phenyl)piperidine-1-carbonyl)phenyl)pyrrolidine-2-carboxamide]
